molecular target: HiBiT tagged Wee1 (Homo sapiens, UniProt P30291); assay: Wee1 protein degradation assay (HiBiT assay); assay type: cell-based; conditions: engineered HT-1080 cells, 20 hours
Sequence (P30291 whole entry): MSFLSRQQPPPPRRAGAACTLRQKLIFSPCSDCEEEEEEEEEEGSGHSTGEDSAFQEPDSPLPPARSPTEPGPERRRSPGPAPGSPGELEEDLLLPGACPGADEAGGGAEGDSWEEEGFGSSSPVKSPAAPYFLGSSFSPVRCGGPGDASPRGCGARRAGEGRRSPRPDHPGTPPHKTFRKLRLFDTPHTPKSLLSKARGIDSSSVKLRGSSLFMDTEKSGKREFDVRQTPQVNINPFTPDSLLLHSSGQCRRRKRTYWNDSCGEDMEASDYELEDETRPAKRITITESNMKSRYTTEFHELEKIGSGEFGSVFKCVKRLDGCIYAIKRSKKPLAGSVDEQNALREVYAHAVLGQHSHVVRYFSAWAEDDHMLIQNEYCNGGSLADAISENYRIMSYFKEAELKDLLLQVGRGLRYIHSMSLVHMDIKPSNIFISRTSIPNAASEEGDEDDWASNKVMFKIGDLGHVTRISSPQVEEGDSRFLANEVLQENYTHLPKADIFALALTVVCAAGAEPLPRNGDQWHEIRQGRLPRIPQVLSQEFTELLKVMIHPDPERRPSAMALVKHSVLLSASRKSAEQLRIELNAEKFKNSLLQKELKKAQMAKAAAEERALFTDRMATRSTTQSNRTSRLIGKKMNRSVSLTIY

SMILES | DC50
C=CCn1c(=O)c2cnc(Nc3ccc(N4CCN(CCCCc5cccc6c5CN(C5CCC(=O)NC5=O)C6=O)CC4)cc3)nc2n1-c1cccc(C(C)(C)O)n1 (centres unmarked) [Compound 50] | < 100 nM
C=CCn1c(=O)c2cnc(Nc3ccc(N4CCN(CC5CCN(c6cc(OC)c(NC7CCC(=O)NC7=O)cc6F)CC5)CC4)cc3)nc2n1-c1ccc2c(n1)[C@@](O)(CC)CC2 (some centres unmarked) [Compound 177] | < 100 nM
C=CCn1c(=O)c2cnc(Nc3ccc(N4CCC(CC(=O)Nc5cccc6c(N7CCC(=O)NC7=O)nn(C)c56)CC4)cc3)nc2n1-c1ccc2c(n1)[C@@](O)(CC)CC2 [Compound 202] | > 1000 nM
C=CCn1c(=O)c2cnc(Nc3ccc(N4CCN(CCOc5ccc6c(c5)C(=O)N(C5CCC(=O)NC5=O)C6=O)CC4)cc3)nc2n1-c1cccc(C(C)(C)O)n1 (centres unmarked) [Compound 63] | < 100 nM
C=CCn1c(=O)c2cnc(Nc3ccc(N4CCN(CC5CCN(c6ccc(NC7CCC(=O)NC7=O)cc6F)CC5)CC4)c(C)c3)nc2n1-c1ccc2c(n1)[C@](C)(O)CC2 (some centres unmarked) [Compound 130] | < 100 nM
C=CCn1c(=O)c2cnc(Nc3ccc(N4CCN(CC5CCN(c6ccc(NC7CCC(=O)NC7=O)cc6F)CC5)CC4)cc3)nc2n1-c1ccc2c(n1)[C@@](C)(O)CC2 (some centres unmarked) [Compound 113] | < 100 nM
O=C1CCC(Nc2ccc(N3CCN(CC4CCN(c5ccc(Nc6ncc7c(=O)n(-c8c(Cl)cccc8Cl)c8nccn8c7n6)cc5)CC4)CC3)c(F)c2)C(=O)N1 (centres unmarked) [Compound 94] | < 100 nM
Cc1cc(Nc2ncc3c(n2)N(C)CN(c2c(Cl)cccc2Cl)C3=O)ccc1N1CCC(CN2CC3(C2)CN(c2ccc4c(c2)C(=O)N(C2CCC(=O)NC2=O)C4=O)C3)CC1 (centres unmarked) [Compound 32] | 100 to 1000 nM
C=CCn1c(=O)c2cnc(Nc3ccc(N4CCN(CC5CCN(c6ccc(NC7CCC(=O)NC7=O)cc6F)CC5)[C@H](COC)C4)cc3)nc2n1-c1ccc2c(n1)[C@@](O)(CC)CC2 (some centres unmarked) [Compound 206] | < 100 nM
C=CCn1c(=O)c2cnc(Nc3ccc(N4CCN(CC5CCN(c6ccc(NC7CCC(=O)NC7=O)cc6F)CC5)CC4)cc3)nc2n1-c1cccc(C(C)(C)O)n1 (centres unmarked) [Compound 102-A] | < 100 nM

Next, values leading:

DC50 | SMILES
> 1000 nM | COc1ccc(C(=O)N2CCC(CN3CCN(Cc4ccc(Nc5ncc6c(=O)n(-c7c(Cl)cccc7Cl)c7nccn7c6n5)cc4)CC3)CC2)cc1N1CCC(=O)NC1=O [Compound 58]
< 100 nM | C=CCn1c(=O)c2cnc(Nc3ccc(C4CCN(CC5CCN(c6ccc(NC7CCC(=O)NC7=O)cn6)CC5)CC4)cc3)nc2n1-c1cccc(C(C)(C)O)n1 (centres unmarked) [Compound 84]
< 100 nM | C=CCn1c(=O)c2cnc(Nc3ccc(N4CCC(CN5CCN(c6ccc7c(N8CCC(=O)NC8=O)nn(C)c7c6)CC5)CC4)cc3)nc2n1-c1ccc2c(n1)[C@](C)(O)CC2 [Compound 127]
100 to 1000 nM | O=C1CCC(N2C(=O)c3ccc(N4CCC(CCN5CCC(c6ccc(Nc7ncc8c(=O)n(-c9c(Cl)cccc9Cl)c9nccn9c8n7)cc6)CC5)CC4)cc3C2=O)C(=O)N1 (centres unmarked) [Compound 15]
< 100 nM | C=CCn1c(=O)c2cnc(Nc3ccc(N4CCC(CN5CCC(c6ccc7c(N8CCC(=O)NC8=O)nn(C)c7c6)C(F)(F)C5)CC4)cc3)nc2n1-c1ccc2c(n1)[C@@](O)(CC)CC2 (some centres unmarked) [Compound 160]
100 to 1000 nM | C=CCn1c(=O)c2cnc(Nc3ccc(C4CCN(C5CCN(c6ccc7c(c6)C(=O)N(C6CCC(=O)NC6=O)C7=O)C5)CC4)cc3)nc2n1-c1cccc(C(C)(C)O)n1 (centres unmarked) [Compound 39]
< 100 nM | C=CCn1c(=O)c2cnc(Nc3ccc(N4CCN(CC5CCN(c6ccc(NC7CCC(=O)NC7=O)nc6)CC5)CC4)cc3)nc2n1-c1ccc2c(n1)[C@@](O)(CC)CC2 (some centres unmarked) [Compound 203]
< 100 nM | C=CCn1c(=O)c2cnc(Nc3ccc(N4CCN(CCNc5ccc6c(c5)C(=O)N(C5CCC(=O)NC5=O)C6=O)CC4)cc3)nc2n1-c1cccc(C(C)(C)O)n1 (centres unmarked) [Compound 11]
> 1000 nM | C=CCn1c(=O)c2cnc(Nc3ccc4c(c3)CN(CCCCc3cccc5c3CN(C3CCC(=O)NC3=O)C5=O)CC4)nc2n1-c1cccc(C(C)(C)O)n1 (centres unmarked) [Compound 49]

same assay, conditions: engineered HT-1080 cells, 20 hours; maximum percentage of Wee1 degradation; read-out: HiBiT Wee1: Dmax

SMILES | Dmax
C=CCn1c(=O)c2cnc(Nc3ccc(N4CCN(CCCCc5cccc6c5CN(C5CCC(=O)NC5=O)C6=O)CC4)cc3)nc2n1-c1cccc(C(C)(C)O)n1 (centres unmarked) [Compound 50] | 50 to 75%
C=CCn1c(=O)c2cnc(Nc3ccc(N4CCN(CC5CCN(c6cc(OC)c(NC7CCC(=O)NC7=O)cc6F)CC5)CC4)cc3)nc2n1-c1ccc2c(n1)[C@@](O)(CC)CC2 (some centres unmarked) [Compound 177] | > 75%
C=CCn1c(=O)c2cnc(Nc3ccc(N4CCC(CC(=O)Nc5cccc6c(N7CCC(=O)NC7=O)nn(C)c56)CC4)cc3)nc2n1-c1ccc2c(n1)[C@@](O)(CC)CC2 [Compound 202] | < 50%
C=CCn1c(=O)c2cnc(Nc3ccc(N4CCN(CCOc5ccc6c(c5)C(=O)N(C5CCC(=O)NC5=O)C6=O)CC4)cc3)nc2n1-c1cccc(C(C)(C)O)n1 (centres unmarked) [Compound 63] | 50 to 75%
C=CCn1c(=O)c2cnc(Nc3ccc(N4CCN(CC5CCN(c6ccc(NC7CCC(=O)NC7=O)cc6F)CC5)CC4)c(C)c3)nc2n1-c1ccc2c(n1)[C@](C)(O)CC2 (some centres unmarked) [Compound 130] | > 75%
C=CCn1c(=O)c2cnc(Nc3ccc(N4CCN(CC5CCN(c6ccc(NC7CCC(=O)NC7=O)cc6F)CC5)CC4)cc3)nc2n1-c1ccc2c(n1)[C@@](C)(O)CC2 (some centres unmarked) [Compound 113] | > 75%
O=C1CCC(Nc2ccc(N3CCN(CC4CCN(c5ccc(Nc6ncc7c(=O)n(-c8c(Cl)cccc8Cl)c8nccn8c7n6)cc5)CC4)CC3)c(F)c2)C(=O)N1 (centres unmarked) [Compound 94] | > 75%
Cc1cc(Nc2ncc3c(n2)N(C)CN(c2c(Cl)cccc2Cl)C3=O)ccc1N1CCC(CN2CC3(C2)CN(c2ccc4c(c2)C(=O)N(C2CCC(=O)NC2=O)C4=O)C3)CC1 (centres unmarked) [Compound 32] | 50 to 75%
C=CCn1c(=O)c2cnc(Nc3ccc(N4CCN(CC5CCN(c6ccc(NC7CCC(=O)NC7=O)cc6F)CC5)[C@H](COC)C4)cc3)nc2n1-c1ccc2c(n1)[C@@](O)(CC)CC2 (some centres unmarked) [Compound 206] | > 75%
C=CCn1c(=O)c2cnc(Nc3ccc(N4CCN(CC5CCN(c6ccc(NC7CCC(=O)NC7=O)cc6F)CC5)CC4)cc3)nc2n1-c1cccc(C(C)(C)O)n1 (centres unmarked) [Compound 102-A] | > 75%

The remaining lines, values ahead:

Dmax | SMILES
< 50% | COc1ccc(C(=O)N2CCC(CN3CCN(Cc4ccc(Nc5ncc6c(=O)n(-c7c(Cl)cccc7Cl)c7nccn7c6n5)cc4)CC3)CC2)cc1N1CCC(=O)NC1=O [Compound 58]
50 to 75% | C=CCn1c(=O)c2cnc(Nc3ccc(C4CCN(CC5CCN(c6ccc(NC7CCC(=O)NC7=O)cn6)CC5)CC4)cc3)nc2n1-c1cccc(C(C)(C)O)n1 (centres unmarked) [Compound 84]
> 75% | C=CCn1c(=O)c2cnc(Nc3ccc(N4CCC(CN5CCN(c6ccc7c(N8CCC(=O)NC8=O)nn(C)c7c6)CC5)CC4)cc3)nc2n1-c1ccc2c(n1)[C@](C)(O)CC2 [Compound 127]
50 to 75% | O=C1CCC(N2C(=O)c3ccc(N4CCC(CCN5CCC(c6ccc(Nc7ncc8c(=O)n(-c9c(Cl)cccc9Cl)c9nccn9c8n7)cc6)CC5)CC4)cc3C2=O)C(=O)N1 (centres unmarked) [Compound 15]
50 to 75% | C=CCn1c(=O)c2cnc(Nc3ccc(N4CCC(CN5CCC(c6ccc7c(N8CCC(=O)NC8=O)nn(C)c7c6)C(F)(F)C5)CC4)cc3)nc2n1-c1ccc2c(n1)[C@@](O)(CC)CC2 (some centres unmarked) [Compound 160]
50 to 75% | C=CCn1c(=O)c2cnc(Nc3ccc(C4CCN(C5CCN(c6ccc7c(c6)C(=O)N(C6CCC(=O)NC6=O)C7=O)C5)CC4)cc3)nc2n1-c1cccc(C(C)(C)O)n1 (centres unmarked) [Compound 39]
50 to 75% | C=CCn1c(=O)c2cnc(Nc3ccc(N4CCN(CC5CCN(c6ccc(NC7CCC(=O)NC7=O)nc6)CC5)CC4)cc3)nc2n1-c1ccc2c(n1)[C@@](O)(CC)CC2 (some centres unmarked) [Compound 203]
50 to 75% | C=CCn1c(=O)c2cnc(Nc3ccc(N4CCN(CCNc5ccc6c(c5)C(=O)N(C5CCC(=O)NC5=O)C6=O)CC4)cc3)nc2n1-c1cccc(C(C)(C)O)n1 (centres unmarked) [Compound 11]
< 50% | C=CCn1c(=O)c2cnc(Nc3ccc4c(c3)CN(CCCCc3cccc5c3CN(C3CCC(=O)NC3=O)C5=O)CC4)nc2n1-c1cccc(C(C)(C)O)n1 (centres unmarked) [Compound 49]
